Data: ChEMBL document CHEMBL5465560, “Selectivity Literature for EUbOPEN Chemogenomic Library” (2024)

Legend:
[1] = molecular target: TGF-beta receptor type-2 (Homo sapiens) (UniProt P37173); conditions: at 10 µM
[2] = molecular target: Calcium/calmodulin-dependent protein kinase type II subunit delta (Homo sapiens) (UniProt Q13557); assay: Selectivity interaction (Ambit KINOMEscan and KiNATiv profiling in Jurkat cells) EUB0000090b CAMK2D; type: cell-based; conditions: at 1 µM
[3] = molecular target: T1, Ephrin type-A receptor 3 (Homo sapiens) (UniProt P29320); assay: Selectivity interaction (KinomeScan (DiscoverX)) EUB0001619a EPHA3; conditions: at 1 µM
T1 sequence (whole entry): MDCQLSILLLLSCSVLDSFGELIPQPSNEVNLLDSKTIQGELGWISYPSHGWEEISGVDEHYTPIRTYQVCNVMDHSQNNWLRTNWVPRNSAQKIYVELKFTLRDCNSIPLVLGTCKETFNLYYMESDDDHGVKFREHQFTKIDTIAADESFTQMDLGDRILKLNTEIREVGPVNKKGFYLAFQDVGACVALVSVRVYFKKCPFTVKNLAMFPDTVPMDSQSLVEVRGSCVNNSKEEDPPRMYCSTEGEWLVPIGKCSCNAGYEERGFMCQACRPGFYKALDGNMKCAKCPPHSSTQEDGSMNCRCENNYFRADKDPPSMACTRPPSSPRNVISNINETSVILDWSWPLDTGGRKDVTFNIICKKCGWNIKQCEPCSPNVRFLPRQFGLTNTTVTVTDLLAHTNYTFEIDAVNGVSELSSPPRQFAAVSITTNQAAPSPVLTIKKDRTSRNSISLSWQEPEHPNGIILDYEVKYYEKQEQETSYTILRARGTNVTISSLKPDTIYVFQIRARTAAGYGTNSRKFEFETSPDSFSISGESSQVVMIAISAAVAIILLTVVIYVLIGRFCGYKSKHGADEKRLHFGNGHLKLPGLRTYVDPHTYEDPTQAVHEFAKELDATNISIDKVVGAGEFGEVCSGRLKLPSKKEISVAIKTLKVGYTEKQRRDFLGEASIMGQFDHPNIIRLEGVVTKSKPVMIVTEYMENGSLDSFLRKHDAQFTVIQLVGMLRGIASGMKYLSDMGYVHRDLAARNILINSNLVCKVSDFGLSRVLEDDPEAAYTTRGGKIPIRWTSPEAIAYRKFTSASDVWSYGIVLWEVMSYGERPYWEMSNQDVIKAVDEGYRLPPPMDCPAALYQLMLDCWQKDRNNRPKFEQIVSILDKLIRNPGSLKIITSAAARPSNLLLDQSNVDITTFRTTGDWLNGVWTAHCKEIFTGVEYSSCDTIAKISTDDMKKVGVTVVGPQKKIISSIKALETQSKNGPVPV

[4] = molecular target: T2, Aurora kinase A (Homo sapiens) (UniProt O14965); assay: Selectivity interaction (KinomeScan (DiscoverX)) EUB0000595a STK6; conditions: at 10 µM
T2 sequence (whole entry): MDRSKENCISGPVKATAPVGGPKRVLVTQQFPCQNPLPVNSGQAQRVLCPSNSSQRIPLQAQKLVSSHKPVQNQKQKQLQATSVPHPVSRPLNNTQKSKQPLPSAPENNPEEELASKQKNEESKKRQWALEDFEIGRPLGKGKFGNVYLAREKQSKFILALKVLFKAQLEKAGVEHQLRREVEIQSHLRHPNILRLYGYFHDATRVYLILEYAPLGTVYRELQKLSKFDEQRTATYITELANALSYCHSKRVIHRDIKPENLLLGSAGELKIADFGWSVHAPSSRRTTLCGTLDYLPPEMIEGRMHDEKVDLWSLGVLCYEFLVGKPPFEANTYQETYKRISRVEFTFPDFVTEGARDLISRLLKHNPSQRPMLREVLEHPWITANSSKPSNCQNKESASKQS

[5] = molecular target: Serine/threonine-protein kinase pim-1 (Homo sapiens, UniProt P11309); assay: Selectivity interaction (Upstate Kinase Profiler service (Millipore)) EUB0000056c PIM1; conditions: at 1 µM
Chain of Serine/threonine-protein kinase pim-1 (P11309 whole entry, looked up): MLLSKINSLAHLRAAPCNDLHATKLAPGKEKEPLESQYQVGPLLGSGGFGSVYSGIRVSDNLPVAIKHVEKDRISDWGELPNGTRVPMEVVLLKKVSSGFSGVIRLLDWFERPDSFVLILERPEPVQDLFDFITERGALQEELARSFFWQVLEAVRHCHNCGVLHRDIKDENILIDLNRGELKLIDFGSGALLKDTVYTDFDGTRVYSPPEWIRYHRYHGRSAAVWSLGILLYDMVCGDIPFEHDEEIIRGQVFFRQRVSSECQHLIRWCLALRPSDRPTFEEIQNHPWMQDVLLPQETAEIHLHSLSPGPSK

[6] = tested on: Epidermal growth factor receptor (Homo sapiens), P00533 [UNDEFINED MUTATION]; conditions: at 10 µM
Chain of Epidermal growth factor receptor (Homo sapiens), P00533 [UNDEFINED MUTATION] (P00533 whole entry, looked up, change not shown): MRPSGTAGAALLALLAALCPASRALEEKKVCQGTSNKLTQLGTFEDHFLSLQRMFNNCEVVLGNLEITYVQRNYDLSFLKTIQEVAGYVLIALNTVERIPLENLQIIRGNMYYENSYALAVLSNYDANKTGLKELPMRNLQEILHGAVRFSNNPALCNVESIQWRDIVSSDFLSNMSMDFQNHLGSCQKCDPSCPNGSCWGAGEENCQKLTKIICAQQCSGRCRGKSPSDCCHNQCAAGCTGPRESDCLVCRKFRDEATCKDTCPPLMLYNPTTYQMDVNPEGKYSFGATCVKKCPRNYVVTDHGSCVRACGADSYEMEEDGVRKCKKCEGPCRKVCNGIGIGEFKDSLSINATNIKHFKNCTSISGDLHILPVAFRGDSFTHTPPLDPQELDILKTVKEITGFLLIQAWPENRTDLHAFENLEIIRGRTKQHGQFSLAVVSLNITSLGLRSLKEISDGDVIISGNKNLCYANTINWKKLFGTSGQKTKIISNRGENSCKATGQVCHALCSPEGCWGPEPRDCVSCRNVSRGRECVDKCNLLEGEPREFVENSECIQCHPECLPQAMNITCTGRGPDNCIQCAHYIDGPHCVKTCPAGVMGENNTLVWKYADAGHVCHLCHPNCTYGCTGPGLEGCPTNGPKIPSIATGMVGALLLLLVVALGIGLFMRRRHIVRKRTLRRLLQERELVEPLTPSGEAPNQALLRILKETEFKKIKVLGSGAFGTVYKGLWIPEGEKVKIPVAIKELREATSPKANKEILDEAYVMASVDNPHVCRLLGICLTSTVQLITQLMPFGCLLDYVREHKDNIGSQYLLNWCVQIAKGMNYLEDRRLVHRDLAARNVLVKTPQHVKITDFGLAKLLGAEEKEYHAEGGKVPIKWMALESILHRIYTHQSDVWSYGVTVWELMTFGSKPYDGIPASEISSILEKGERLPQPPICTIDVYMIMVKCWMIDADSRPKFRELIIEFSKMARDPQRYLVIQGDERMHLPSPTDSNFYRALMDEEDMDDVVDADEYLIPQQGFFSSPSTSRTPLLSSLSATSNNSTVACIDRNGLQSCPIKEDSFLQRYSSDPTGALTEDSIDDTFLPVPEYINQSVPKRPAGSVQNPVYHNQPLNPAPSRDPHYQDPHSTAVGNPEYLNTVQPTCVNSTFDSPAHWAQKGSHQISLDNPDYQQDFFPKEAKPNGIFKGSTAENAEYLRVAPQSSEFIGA

[7] = molecular target: T3, Serine/threonine-protein kinase TAO1 (Homo sapiens) (UniProt Q7L7X3); assay: Selectivity interaction (KinomeScan (DiscoverX)) EUB0000092b TAOK1; conditions: at 10 µM
T3 sequence (whole entry): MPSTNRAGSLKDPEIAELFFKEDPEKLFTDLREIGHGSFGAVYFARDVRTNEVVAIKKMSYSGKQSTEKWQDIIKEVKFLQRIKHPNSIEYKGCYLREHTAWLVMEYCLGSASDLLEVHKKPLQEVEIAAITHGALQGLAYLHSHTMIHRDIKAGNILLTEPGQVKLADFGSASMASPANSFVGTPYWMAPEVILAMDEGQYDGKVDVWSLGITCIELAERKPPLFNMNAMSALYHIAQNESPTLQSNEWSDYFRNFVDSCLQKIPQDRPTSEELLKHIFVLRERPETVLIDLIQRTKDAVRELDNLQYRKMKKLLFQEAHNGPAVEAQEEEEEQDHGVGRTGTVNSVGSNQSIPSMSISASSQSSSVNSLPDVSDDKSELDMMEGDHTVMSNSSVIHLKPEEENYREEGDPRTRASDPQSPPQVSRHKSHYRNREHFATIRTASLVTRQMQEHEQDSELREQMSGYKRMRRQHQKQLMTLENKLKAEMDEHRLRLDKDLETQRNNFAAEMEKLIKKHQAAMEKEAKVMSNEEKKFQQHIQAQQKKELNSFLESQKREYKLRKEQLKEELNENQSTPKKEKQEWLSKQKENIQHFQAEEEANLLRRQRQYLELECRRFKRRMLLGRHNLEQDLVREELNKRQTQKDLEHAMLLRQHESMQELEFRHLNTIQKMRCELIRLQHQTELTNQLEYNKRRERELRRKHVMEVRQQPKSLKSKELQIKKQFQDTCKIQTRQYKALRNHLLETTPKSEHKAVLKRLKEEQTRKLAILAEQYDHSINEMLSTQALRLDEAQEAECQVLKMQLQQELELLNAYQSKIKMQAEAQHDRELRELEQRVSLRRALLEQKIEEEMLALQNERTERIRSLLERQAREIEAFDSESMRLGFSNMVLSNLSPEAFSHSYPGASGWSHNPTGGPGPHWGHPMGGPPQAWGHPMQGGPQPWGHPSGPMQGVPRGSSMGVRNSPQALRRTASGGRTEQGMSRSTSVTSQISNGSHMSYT

Chain of Calcium/calmodulin-dependent protein kinase type II subunit delta (Homo sapiens) (Q13557 whole entry): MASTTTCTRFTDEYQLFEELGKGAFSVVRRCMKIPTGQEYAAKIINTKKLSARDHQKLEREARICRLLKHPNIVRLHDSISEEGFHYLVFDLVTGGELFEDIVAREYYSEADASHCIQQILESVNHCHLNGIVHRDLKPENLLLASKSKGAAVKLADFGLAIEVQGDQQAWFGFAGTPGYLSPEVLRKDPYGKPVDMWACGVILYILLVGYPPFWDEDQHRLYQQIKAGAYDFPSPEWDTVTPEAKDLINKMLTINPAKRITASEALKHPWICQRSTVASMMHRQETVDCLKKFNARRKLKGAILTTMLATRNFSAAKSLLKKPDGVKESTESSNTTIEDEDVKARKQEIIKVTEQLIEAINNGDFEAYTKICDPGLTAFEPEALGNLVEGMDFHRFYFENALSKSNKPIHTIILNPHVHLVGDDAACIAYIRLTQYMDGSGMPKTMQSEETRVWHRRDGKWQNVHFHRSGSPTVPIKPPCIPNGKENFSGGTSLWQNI
Chain of TGF-beta receptor type-2 (Homo sapiens) (P37173 whole entry): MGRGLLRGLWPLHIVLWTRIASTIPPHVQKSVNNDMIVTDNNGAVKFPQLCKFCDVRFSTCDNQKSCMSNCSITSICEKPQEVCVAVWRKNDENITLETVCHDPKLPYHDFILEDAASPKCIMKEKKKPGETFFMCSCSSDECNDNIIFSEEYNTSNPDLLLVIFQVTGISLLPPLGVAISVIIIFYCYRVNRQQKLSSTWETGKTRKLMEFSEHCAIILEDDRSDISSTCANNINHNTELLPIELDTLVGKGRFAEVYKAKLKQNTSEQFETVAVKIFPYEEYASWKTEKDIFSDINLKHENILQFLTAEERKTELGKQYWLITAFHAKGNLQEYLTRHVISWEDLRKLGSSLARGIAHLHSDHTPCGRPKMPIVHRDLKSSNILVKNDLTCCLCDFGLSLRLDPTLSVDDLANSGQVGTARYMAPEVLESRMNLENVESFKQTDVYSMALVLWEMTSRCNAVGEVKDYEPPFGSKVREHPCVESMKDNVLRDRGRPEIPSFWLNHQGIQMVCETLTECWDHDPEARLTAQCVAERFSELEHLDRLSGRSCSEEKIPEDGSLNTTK

In the case of CCN(CC)CCCCNc1ncc2cc(-c3cc(OC)cc(OC)c3)c(NC(=O)NC(C)(C)C)nc2n1, the % of control [1] is reported as 100%.

CN(C)C/C=C/C(=O)Nc1ccc(C(=O)N2CCCC(Nc3ncc(Cl)c(-c4c[nH]c5ccccc45)n3)C2)cc1 (configuration not stated) was tested, and the % of control [2] was 88%.

Work on N#Cc1cccc(-c2c[nH]c3ncnc(N4CCOCC4)c23)c1 yielded a % of control [3] of 66%.

Work on COCC(=O)NC/C=C/c1ccc2ncnc(Nc3ccc(Oc4ccc(C)nc4)c(C)c3)c2c1 [CP-724714] yielded a % of control [4] of 100%.

Molecule Cc1ccc(-c2ccc3c(ccc4sc5c(c43)NC[C@@H](C)NC5=O)n2)cn1 has a % of inhibition [5] of 89%.

Work on Cc1cc([C@@H](C)Nc2ccccc2C(=O)O)c2nc(N3CCOCC3)cc(=O)n2c1 [AZD-6482] yielded a % of control [6] of 100%.

With CCC(=O)N1CCN(c2ccc(-n3c(=O)ccc4cnc5ccc(-c6cnc7ccccc7c6)cc5c43)cc2C(F)(F)F)CC1 the % of control [7] was 58%.
